Data taken from US9125912B1, “Method of treating ulcerative colitis” (KING SAUD UNIVERSITY, priority 2015, dated 2015).

System: ulcerative colitis induced by acetic acid
Assay: Ulcerative colitis induced by acetic acid in rats, macroscopic parameters
Assay type: in vivo, Male Wistar rats
Details: from ulcer index, oral once daily for 5 days before induction, extracts 400 mg/kg, volatile oil 50 mg/kg, dexamethasone 0.1 mg/kg
Source text: The extracts (total alcohol extract, total phenolic contents and volatile oil) of the three plants under investigation were freshly suspended in distilled water just before administration by the aid of Tween 80.
The extracts of Ocimum americanum, Ocimum basilicum and Ocimum basilicum var. thyrsiflora were independently administered to rats five days prior to ulcer induction. In detail, twelve experimental groups, each of 6 Male Wistar rats were used. Rats of groups 1 and 2 received the vehicle (5 mL/kg) and served as normal control and control colitis groups. […] Rats of groups 4-12 received the volatile oil extract, the total alcohol extract and the total phenolic extract of each of the three plants. Doses of 400 mg/kg of the total alcohol extract and the phenolic content were administered. Doses of 50 mg/kg of the volatile oil were administered. All medications were administered orally, once daily for 5 successive days and the last dose was administered 2 hours before colitis induction.
Animals were fasted overnight, with access to water ad libitum. Under ether anesthesia a solution of 2 mL (4%, v/v) acetic acid in saline was slowly infused into the colon through the polyethylene catheter 2 mm diameter that was inserted into the lumen of the colon via the anus to a distance of 8 cm. […]
The colon specimens were weighted and wet weight/length ratio was calculated for all the rats. The specimens were examined under a dissecting microscope and the lesion scores were quantified by scoring system (0-5).
Ulcer area was measured using plane glass square. Each cell on the glass square was 1 mm^2 in area and the number of cells was counted and the ulcer area was determined for each colon.
Ulcer index (UI) was measured by summing the lesion score and the ulcer area for each colon specimen. The curative ratio was determined according to the formula: Curative ratio=Control UI−Test UI/Control UI×100.
Data were expressed as mean±S. D. Statistical analysis was done by using SPSS 14. Statistical significance of differences between two means was assessed by unpaired Student's ‘t’ test. […]

C[C@@H]1C[C@H]2[C@@H]3CCC4=CC(=O)C=C[C@]4(C)[C@@]3(F)[C@@H](O)C[C@]2(C)[C@@]1(O)C(=O)CO [Dexamethasone]
% Protection from control colitis: 71.54% | % Protection from control colitis (listed as dexamesthasone): about 71.54% | % Protection from control colitis (listed as dexamethasone): 71.54%
